How the values were obtained:
[1] = molecular target: delta opioid receptor (Homo sapiens (Human), UniProt P41143); assay: In vitro delta-opioid receptor binding assay ([3H]-Naltrindole displacement)
[2] = molecular target: human opioid receptor-like (ORL-1) (Homo sapiens (Human), UniProt P41146); assay: In vitro ORL-1 receptor [35S]GTPγS functional assay; type: biochemical
[3] = system: FCA-induced inflammation of the rat hind paw; conditions: in vivo

Chain of human opioid receptor-like (ORL-1) (P41146 whole entry): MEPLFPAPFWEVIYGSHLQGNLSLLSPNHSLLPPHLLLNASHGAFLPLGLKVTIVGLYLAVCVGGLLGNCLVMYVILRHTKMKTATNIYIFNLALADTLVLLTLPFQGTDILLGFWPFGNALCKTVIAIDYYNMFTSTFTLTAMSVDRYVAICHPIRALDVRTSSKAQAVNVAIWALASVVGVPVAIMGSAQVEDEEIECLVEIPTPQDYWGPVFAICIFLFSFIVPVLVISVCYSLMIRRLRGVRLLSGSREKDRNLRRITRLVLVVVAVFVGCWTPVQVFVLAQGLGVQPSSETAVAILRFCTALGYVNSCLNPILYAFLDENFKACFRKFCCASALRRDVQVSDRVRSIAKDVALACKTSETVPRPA
Chain of delta opioid receptor (P41143 whole entry): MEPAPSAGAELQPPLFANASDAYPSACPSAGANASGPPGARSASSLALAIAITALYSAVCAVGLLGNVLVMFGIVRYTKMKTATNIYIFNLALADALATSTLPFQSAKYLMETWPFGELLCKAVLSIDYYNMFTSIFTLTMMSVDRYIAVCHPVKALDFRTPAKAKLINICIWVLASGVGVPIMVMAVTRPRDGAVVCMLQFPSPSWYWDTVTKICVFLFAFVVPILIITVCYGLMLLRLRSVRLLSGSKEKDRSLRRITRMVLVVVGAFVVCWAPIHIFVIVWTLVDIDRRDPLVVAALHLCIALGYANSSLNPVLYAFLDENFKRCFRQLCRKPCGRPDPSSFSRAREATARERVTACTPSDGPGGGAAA

| SMILES | Ki [1] | EC50 [2] | maximum % reversal of thermal hyperalgesia [3] |
| --- | --- | --- | --- |
| O=C(O)c1nc2ccccc2n(C2CC3CCCC(C2)N3C23CC4CC(CC2C4)C3)c1=O (stereo not drawn) [compound 263, 4-(9-(hexahydro-2,5-methano-pentalen-3a-yl)-9-aza-bicyclo[3.3.1]non-3-yl)-3-oxo-3,4-dihydro-quinoxaline-2-carboxylic acid] | 526000 nM | 298 ± 26 nM | – |
| O=C(O)c1nc2ccccc2n([C@H]2C[C@H]3CCC[C@@H](C2)N3C2CCCCCCC2)c1=O [compound 241, 4-((endo)-9-cyclooctyl-9-azabicyclo[3.3.1]nonan-3-yl)-3-oxo-3,4-dihydroquinoxaline-2-carboxylic acid] | – | – | about 80% |
| O=C(O)CN1CCN(c2nc3ccccc3n([C@H]3C[C@H]4CC[C@@H](C3)N4C3CCCCCCC3)c2=O)CC1 [compound 337, 2-(4-(4-((endo)-8-cyclooctyl-8-azabicyclo[3.2.1]octan-3-yl)-3-oxo-3,4-dihydroquinoxalin-2-yl)piperazin-1-yl)acetic acid] | – | 438 ± 15 nM | – |
| CN(CC(=O)O)C(=O)c1nc2ccccc2n([C@H]2C[C@H]3CC[C@@H](C2)N3C2CCCCCCC2)c1=O [compound 307, 2-(4-((endo)-8-cyclooctyl-8-azabicyclo[3.2.1]octan-3-yl)-N-methyl-3-oxo-3,4-dihydroquinoxaline-2-carboxamido)acetic acid] | – | 400 ± 72 nM | – |
| NC(=O)[C@H](CO)Nc1nc2ccccc2n(C2CCN(C3CCCCCCC3)CC2)c1=O [compound 33] | – | 211 ± 21 nM | – |
| CC(C)(C)OC(=O)NCCNc1nc2ccccc2n(C2CCN(C3CCCCCCC3)CC2)c1=O [compound 7, tert-butyl 2-(4-(1-cyclooctylpiperidin-4-yl)-3-oxo-3,4-dihydroquinoxalin-2-ylamino)ethylcarbamate] | – | 979 ± 40 nM | – |
| O=C(c1nc2ccccc2n(C2CCN(C3CCCCCCC3)CC2)c1=O)N1CC2CNCC2C1 (stereo not drawn) [compound 73, 1-(1-cyclooctylpiperidin-4-yl)-3-(octahydropyrrolo[3,4-c]pyrrole-2-carbonyl)quinoxalin-2(1H)-one] | – | 377 ± 115 nM | – |
| CC1(N2[C@@H]3CCC[C@H]2C[C@@H](n2c(=O)c(C(=O)O)nc4ccccc42)C3)CCCCCCC1 [compound 335] | – | 174 ± 10 nM | – |

From patent US8846929B2, “Substituted-quinoxaline-type piperidine compounds and the uses thereof” (priority 2007, dated 2014)
